Assay results from US4024224A, “14-Aminodaunomycins, their preparation and use” (priority 1974, dated 1977).
≈ marks a conversion by molar mass, not a printed value. Where two headings read alike, the source gives them in different places.

What was measured:
Mouse Embryo Fibroblasts = experiment: Proliferation of uninfected mouse embryo fibroblasts (MEF); assay type: cell-based; details: Mus musculus, Fibroblast, 72 h, read-out: MEF No. of cells
Method: (§1) Mouse embryo fibroblasts (MEF) were plated on 35 mm. Falcon plastic dishes and infected 24 hours later with Moloney Sarcoma Virus (MSV) in the presence of DEAE-dextran (25 μg./ml.). The samples were then treated for 3 days with different concentrations of the compounds of the invention. The number of foci of transformed cells was microscopically determined 5 days after the infection. Uninfected MEF were similarly treated and at the end of the experiment, the cells were counted in an haemocytometer. In all the experiments, the cells were incubated in a 5% CO2 incubator at 37° C.
(§2) For use in these tests the compounds were dissolved in distilled water or in 5% ethyl alcohol in distilled water and then diluted in culture medium.

[1] = as above; assay type: cell-based; details: mouse, mouse embryo fibroblasts; calculated on dose-effects lines; uninfected MEF, 3 days treatment; read-out: MEF proliferation ID 50 (Inhibiting Dose 50%)
Method: as §1, §2

[2] = Antitumor activity and toxicity on ascites Sarcoma 180 in CD 1 mice; assay type: in vivo; details: mouse, in vivo, ip, read-out: % Toxic Deaths
Method: (§3) The antitumor activity of the compounds of the invention was tested on ascites Sarcoma 180.
(§4) Three month old CD 1 mice were used. Sarcoma 180 ascites cells were inoculated intraperitoneally (10^6 cells/mouse). For use in these tests, the compounds were dissolved in distilled water or in 5% ethyl alcohol in distilled water, then diluted with Ringers solution and administered i.p. 1 day after the tumor implant (10 ml./kg. of body weight).
(§5) The toxicity of the test compounds was evaluated by macroscopic autoptic examination mainly in terms of reduction in spleen size. The comparison of the effectiveness of the test compounds is based on the maximum increase in median survival time, as compared to untreated controls, over the dose range used. The number of Long Term Survivors (LTS) refers to tumor-free mice at the end of the experiment (60 days). Solid Sarcoma 180 was implanted subcutaneously by trocar in the flank of CD 1 mice according to standard methods. The mice were treated i.v. for 5 consecutive days, starting 1 day after the tumor implant. On the 11th day the tumor volume was measured by means of a caliper and evaluated according to the formula (a^2 × b)/2, a and b being the minimum and the maximum diameters respectively.

ascites Sarcoma 180 = experiment: as above; assay type: in vivo; details: for % LTS: 60 days; for LTS (Long Term Survivors after 60 days): survivors/total; for Toxic Deaths: deaths/total
Method: as §3, §4, §5

[3] = system: Moloney Sarcoma Virus (MSV); experiment: Inhibition of MSV-M foci formation in mouse embryo fibroblasts; assay type: cell-based; details: Fibroblast, 120 h; for IC50: read-out: MSV-M foci ID 50 (Inhibiting Dose 50%)
Method: as §1, §2
The results of these tests are reported in Table I in terms of ID50 values (Inhibiting Dose 50%), calculated on dose-effects lines.

Solid Sarcoma 180 = experiment: Antitumor activity and toxicity on solid Sarcoma 180 in CD 1 mice; assay type: in vivo; details: for Tumor Volume T/C %: 11th day; for Toxic Deaths: deaths/total
Method: as §5

[4] = 0.2 mg./kg. i.p. 1 day after tumor implant
[5] = 1 mg./kg. i.p. 1 day after tumor implant
[6] = 5 mg./kg. i.p. 1 day after tumor implant
[7] = 10 mg./kg. i.p. 1 day after tumor implant
[8] = 25 mg./kg. i.p. 1 day after tumor implant
[9] = 50 mg./kg. i.p. 1 day after tumor implant
[10] = 100 mg./kg. i.p. 1 day after tumor implant
[11] = 3 mg./kg. i.v. for 5 consecutive days
[12] = 4 mg./kg. i.v. for 5 consecutive days
[13] = 5 mg./kg. i.v. for 5 consecutive days

## COc1cccc2c1C(=O)c1c(O)c3c(c(O)c1C2=O)C[C@@](O)(C(=O)CO)C[C@@H]3O[C@H]1C[C@H](N)[C@H](O)[C@H](C)O1 [Adriamycin, reference compound]
Mouse Embryo Fibroblasts
  activity at 0.0062 µg/mL: 61%
  activity at 0.0125 µg/mL: 42%
  activity at 0.025 µg/mL: 37%
[1]
  IC50 at 72 h: 0.01 µg/mL (≈ 0.0184 µM)
[2]; 0.2 mg./kg. i.p.
  mortality: 0%
[2]; 1 mg./kg. i.p.
  mortality: 0%
[2]; 5 mg./kg. i.p.
  mortality: 10%
[2]; 10 mg./kg. i.p.
  mortality: 20%
Ascites Sarcoma 180; [4]
  % LTS: 16%
  LTS (Long Term Survivors after 60 days): 5/30
Ascites Sarcoma 180; 0.2 mg./kg. i.p.
  Toxic Deaths: 0/30
Ascites Sarcoma 180; [5]
  T/C (median survival time, % over untreated controls): 177%
  % LTS: 45%
  LTS (Long Term Survivors after 60 days): 13/29
Ascites Sarcoma 180; 1 mg./kg. i.p.
  Toxic Deaths: 0/29
Ascites Sarcoma 180; [6]
  T/C (median survival time, % over untreated controls): 200%
  % LTS: 19%
  LTS (Long Term Survivors after 60 days): 9/47
Ascites Sarcoma 180; 5 mg./kg. i.p.
  Toxic Deaths: 5/47
Ascites Sarcoma 180; [7]
  % LTS: 0%
  LTS (Long Term Survivors after 60 days): 0/10
Ascites Sarcoma 180; 10 mg./kg. i.p.
  Toxic Deaths: 2/10
[3]; read-out: MSV-M No. of foci
  activity at 0.0062 µg/mL: 46%
  activity at 0.0125 µg/mL: 24%
  activity at 0.025 µg/mL: 0%
[3]
  IC50: 0.005 µg/mL (≈ 0.0092 µM)

## COc1cccc2c1C(=O)c1c(O)c3c(c(O)c1C2=O)C[C@@](O)(C(=O)CN1CCOCC1)C[C@@H]3O[C@H]1C[C@H](N)[C@H](O)[C@H](C)O1 [14-(N-morpholino)-daunomycin]
Mouse Embryo Fibroblasts; dose 0.0062 μg/ml, uninfected MEF, 3 days treatment
  activity at 0.0062 µg/mL: 81%
Mouse Embryo Fibroblasts; dose 0.0250 μg/ml, uninfected MEF, 3 days treatment
  activity at 0.025 µg/mL: 68%
Mouse Embryo Fibroblasts; dose 0.1 μg/ml, uninfected MEF, 3 days treatment
  activity at 0.1 µg/mL: 31%
Mouse Embryo Fibroblasts; dose 0.4 μg/ml, uninfected MEF, 3 days treatment
  activity at 0.4 µg/mL: 21%
[1]
  IC50 at 72 h: 0.5 µg/mL (≈ 0.816 µM)
[2]; 0.2 mg./kg. i.p.
  mortality: 0%
[2]; 1 mg./kg. i.p.
  mortality: 0%
[2]; 5 mg./kg. i.p.
  mortality: 0%
[2]; 25 mg./kg. i.p.
  mortality: 0%
[2]; 50 mg./kg. i.p.
  mortality: 14%
[2]; 100 mg./kg. i.p.
  mortality: 85%
Ascites Sarcoma 180; [4]
  T/C (median survival time, % over untreated controls): 103%
  % LTS: 0%
  LTS (Long Term Survivors after 60 days): 0/10
Ascites Sarcoma 180; 0.2 mg./kg. i.p.
  Toxic Deaths: 0/10
Ascites Sarcoma 180; [5]
  T/C (median survival time, % over untreated controls): 111%
  % LTS: 0%
  LTS (Long Term Survivors after 60 days): 0/10
Ascites Sarcoma 180; 1 mg./kg. i.p.
  Toxic Deaths: 0/10
Ascites Sarcoma 180; [6]
  T/C (median survival time, % over untreated controls): 133%
  % LTS: 30%
  LTS (Long Term Survivors after 60 days): 3/10
Ascites Sarcoma 180; 5 mg./kg. i.p.
  Toxic Deaths: 0/10
Ascites Sarcoma 180; [8]
  T/C (median survival time, % over untreated controls): 223%
  % LTS: 29%
  LTS (Long Term Survivors after 60 days): 5/17
Ascites Sarcoma 180; 25 mg./kg. i.p.
  Toxic Deaths: 0/17
Ascites Sarcoma 180; [9]
  T/C (median survival time, % over untreated controls): 100%
  % LTS: 0%
  LTS (Long Term Survivors after 60 days): 0/7
Ascites Sarcoma 180; 50 mg./kg. i.p.
  Toxic Deaths: 1/7
Ascites Sarcoma 180; [10]
  T/C (median survival time, % over untreated controls): 50%
  % LTS: 14%
  LTS (Long Term Survivors after 60 days): 1/7
Ascites Sarcoma 180; 100 mg./kg. i.p.
  Toxic Deaths: 6/7
Solid Sarcoma 180; [11]
  Tumor Volume T/C %: 77%
  Toxic Deaths: 0/10
Solid Sarcoma 180; [12]
  Tumor Volume T/C %: 64%
  Toxic Deaths: 0/10
Solid Sarcoma 180; [13]
  Tumor Volume T/C %: 69%
  Toxic Deaths: 0/10
[3]; calculated on dose-effects lines, 3 days treatment
  IC50: 0.032 µg/mL (≈ 0.0522 µM)
[3]; dose 0.0062 μg/ml, 3 days treatment, foci counted 5 days after infection, read-out: MSV-M No. of foci
  activity at 0.0062 µg/mL: 78%
[3]; dose 0.0250 μg/ml, 3 days treatment, foci counted 5 days after infection, read-out: MSV-M No. of foci
  activity at 0.025 µg/mL: 69%
[3]; dose 0.1 μg/ml, 3 days treatment, foci counted 5 days after infection, read-out: MSV-M No. of foci
  activity at 0.1 µg/mL: 17%
[3]; dose 0.4 μg/ml, 3 days treatment, foci counted 5 days after infection, read-out: MSV-M No. of foci
  activity at 0.4 µg/mL: 0%
